How the values were obtained:
[1] = system: Blood cancer cells RS4; 11; assay: CellTiter Glo test: growth inhibition of cells; assay type: cell-based; conditions: Homo sapiens, 11 cells, 72 h, cell viability
Description: Test of Candidate Compounds on Growth Inhibition of Cells Determined by CellTiter Glo
Blood cancer cells RS4; 11 were inoculated into the 96-well cell culture plate through Multidrop 3000 cells per well, with a volume of 100 μL. The final compound concentration ranged from 50 μM to 0.01 μM at 9 concentration gradients and the DMSO final concentration was 0.1%. The cells and compounds were co-incubated in a cell incubator at 37° C. for 72 h, a CellTiter-Glo Luminescent Cell Viability Assay reagent was added 100 μL/well, the cells and compound were uniformly mixed and incubated at room temperature for 10 min, and Envision reading was performed. A sample treated with 50 μM of a positive compound was taken as a positive control and a sample treated with 100 nL of DMSO was taken as a negative control.

MDM2 = MDM2 (Homo sapiens, UniProt Q00987); assay: HTRF test: inhibition of MDM2-p53 protein binding
MDM2, sequence (Q00987 2-138): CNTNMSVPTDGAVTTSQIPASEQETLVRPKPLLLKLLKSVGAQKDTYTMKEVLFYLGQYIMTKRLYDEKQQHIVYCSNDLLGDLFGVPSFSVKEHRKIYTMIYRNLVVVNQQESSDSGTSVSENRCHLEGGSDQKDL

MDMX = biological target: T1, MDMX (Homo sapiens, UniProt O15151); assay: HTRF test: inhibition of MDMX-p53 protein binding
T1 sequence (O15151 2-134): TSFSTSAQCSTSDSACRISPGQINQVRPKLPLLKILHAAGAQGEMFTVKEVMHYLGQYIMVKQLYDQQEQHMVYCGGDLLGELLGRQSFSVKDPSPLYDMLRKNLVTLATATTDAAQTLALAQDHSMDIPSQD

Compound	IC50 [1] [nM]	IC50 (MDM2) [nM]	IC50 (MDMX) [nM]
C#Cc1ccc(CN2C(=O)N/C(=C\c3c[nH]c4c(F)c(Cl)ccc34)C2=O)cc1 [Compound 17, (Z)-5-((6-chloro-7-fluoro-1H-indol-3-yl)methylene)-3-(4-acetenylbenzyl)imidazolidine-2,4-dione]	≤ 1000	10 to 100	10 to 100
N#Cc1cccc(CN2C(=O)N/C(=C\c3c[nH]c4c(F)c(Cl)ccc34)C2=O)c1 [Compound 18, (Z)-3-((4-((6-chloro-7-fluoro-1H-indol-3-yl)methylene)-2,5-dioxoimidazolidin-1-yl)methyl)benzonitrile]	≤ 1000	10 to 100	10 to 100
Cc1c(Cl)ccc2c(/C=C3\NC(=O)N(Cc4ccc(C#N)cc4)C3=O)c[nH]c12 [Compound 19, (Z)-4-((4-((6-chloro-7-methyl-1H-indol-3-yl)methylene)-2,5-dioxoimidazolidin-1-yl)methyl)benzonitrile]	≤ 1000	< 10	< 10
N#Cc1ccc(CN2C(=O)N/C(=C\c3c[nH]c4cc(Cl)ccc34)C2=O)cc1F [Compound 20, (Z)-4-((4-((6-chloro-1H-indol-3-yl)methylene)-2,5-dioxoimidazolidin-1-yl)methyl)-2-fluorobenzonitrile]	≤ 1000	10 to 100	10 to 100
Cc1c(Cl)ccc2c(/C=C3\NC(=O)N(Cc4ccc(C#N)c(F)c4)C3=O)c[nH]c12 [Compound 21, (Z)-4-((4-((6-chloro-7-methyl-1H-indol-3-yl)methylene)-2,5-dioxoimidazolidin-1-yl)methyl)-2-fluorobenzonitrile]	≤ 1000	10 to 100	< 10
O=C(NC(CO)CO)C(c1ccc(F)c(F)c1)N1C(=O)N/C(=C\c2c[nH]c3cc(Cl)ccc23)C1=O (stereo not drawn) [Compound 24, (Z)-2-(4-((6-chloro-1H-indol-3-yl)methylene)-2,5-dioxoimidazolidin-1-yl)-2-(3,4-difluorophenyl)-N-(1,3-dihydroxypropan-2-yl)acetamide]	1000 to 10000	10 to 100	10 to 100
O=C1N/C(=C\c2c[nH]c3cc(Cl)ccc23)C(=O)N1C(CO)c1ccc(F)c(F)c1 (stereo not drawn) [Compound 26]	≤ 1000	< 10	< 10
N#Cc1ccc(C(C(=O)NC(CO)CO)N2C(=O)N/C(=C\c3c[nH]c4c(F)c(Cl)ccc34)C2=O)cc1F (stereo not drawn) [Compound 27, (Z)-2-(4-((6-chloro-7-fluoro-1H-indol-3-yl)methylene)-2,5-dioxoimidazolidin-1-yl)-2-(4-cyano-3-fluorophenyl)-N-(1,3-dihydroxypropan-2-yl)acetamide]	≤ 1000	< 10	< 10
O=C(NC(CO)CO)C(c1ccc(Cl)cc1)N1C(=O)N/C(=C\c2c[nH]c3c(F)c(Cl)ccc23)C1=O (stereo not drawn) [Compound 28, (Z)-2-(4-((6-chloro-7-fluoro-1H-indol-3-yl)methylene)-2,5-dioxoimidazolidin-1-yl)-2-(4-chlorophenyl)-N-(1,3-dihydroxypropan-2-yl)acetamide]	≤ 1000	< 10	< 10
N#Cc1ccc(C(C(=O)NC(CO)CO)N2C(=O)N/C(=C\c3c[nH]c4c(F)c(Cl)ccc34)C2=O)cc1 (stereo not drawn) [Compound 29, (Z)-2-(4-((6-chloro-7-fluoro-1H-indol-3-yl)methylene)-2,5-dioxoimidazolidin-1-yl)-2-(4-cyanophenyl)-N-(1,3-dihydroxypropan-2-yl)acetamide]	1000 to 10000	< 10	< 10
Cc1c(Cl)ccc2c(/C=C3\NC(=O)N(C(C(=O)NC(CO)(CO)CO)c4ccc(F)c(F)c4)C3=O)c[nH]c12 (stereo not drawn) [Compound 30, (Z)-2-(4-((6-chloro-7-methyl-1H-indol-3-yl)methylene)-2,5-dioxoimidazolidin-1-yl)-2-(3,4-difluorophenyl)-N-(1,3-dyhydroxl-2-(hydroxymethyl)-2-propyl)acetamide]	≤ 1000	< 10	< 10
N#Cc1ccc(C(C(=O)NC(CO)CO)N2C(=O)N/C(=C\c3c[nH]c4cc(Cl)ccc34)C2=O)cc1 (stereo not drawn) [Compound 31, (Z)-2-(4-((6-chloro-1H-indol-3-yl)methylene)-2,5-dioxoimidazolidin-1-yl)-2-(4-cyanophenyl)-N-(1,3-dihydroxypropan-2-yl)acetamide]	1000 to 10000	10 to 100	10 to 100
Cc1c(Cl)ccc2c(/C=C3\NC(=O)N(C(C(=O)NC(CO)CO)c4ccc(C#N)cc4)C3=O)c[nH]c12 (stereo not drawn) [Compound 32, (Z)-2-(4-((6-chloro-7-methyl-1H-indol-3-yl)methylene)-2,5-dioxoimidazolidin-1-yl)-2-(4-cyanophenyl)-N-(1,3-dihydroxypropan-2-yl)acetamide]	1000 to 10000	< 10	< 10
N#Cc1ccc(C(C=O)N2C(=O)N/C(=C\c3c[nH]c4c(F)c(Cl)ccc34)C2=O)cc1F (stereo not drawn) [Compound 33, (Z)-4-(1-(4-((6-chloro-7-fluoro-1H-indol-3-yl)methylene)-2,5-dioxoimidazolidin-1-yl)-2-oxyethyl)-2-fluorobenzonitrile]	1000 to 10000	10 to 100	10 to 100
N#Cc1ccc(CN2C(=O)N/C(=C\c3c[nH]c4c(F)c(Cl)ccc34)C2=O)c(F)c1F [Compound 34, 4-{[(4Z)-4-[(6-chloro-7-fluoro-1H-indol-3-yl)methylene]-2,5-dioxoimidazolidin-1-yl]methyl}-2,3-difluorobenzonitrile]	≤ 1000	< 10	10 to 100
N#Cc1c(F)cc(CN2C(=O)N/C(=C\c3c[nH]c4c(F)c(Cl)ccc34)C2=O)cc1F [Compound 35]	≤ 1000	10 to 100	10 to 100
N#Cc1cc(F)c(CN2C(=O)N/C(=C\c3c[nH]c4c(F)c(Cl)ccc34)C2=O)cc1F [Compound 36, 4-{[(4Z)-4-[(6-chloro-7-fluoro-1H-indol-3-yl)methylene]-2,5-dioxoimidazolidin-1-yl]methyl}-2,5-difluorobenzonitrile]	≤ 1000	< 10	10 to 100
N#Cc1ccc(C(CO)N2C(=O)N/C(=C\c3c[nH]c4c(F)c(Cl)ccc34)C2=O)cc1F (stereo not drawn) [Compound 37, (Z)-4-(1-(4-((6-chloro-7-fluoro-1H-indol-3-yl)methylene)-2,5-dioxoimidazolidin-1-yl)-2-hydroxyethyl)-2-fluorobenzonitrile]	≤ 1000	10 to 100	10 to 100
N#Cc1ccc(C(C(=O)NCCO)N2C(=O)N/C(=C\c3c[nH]c4c(F)c(Cl)ccc34)C2=O)cc1F (stereo not drawn) [Compound 41, (Z)-2-(4-((6-chloro-7-fluoro-1H-indol-3-yl)methylene)-2,5-dioxoimidazolidin-1-yl)-2-(4-cyano-3-fluorophenyl)-N-(2-hydroxyethyl)acetamide]	≤ 1000	< 10	< 10
O=C1N/C(=C\c2c[nH]c3cc(Cl)ccc23)C(=O)N1C(CO)c1ccc(Cl)cc1 (stereo not drawn) [Compound 45, (Z)-5-((6-chloro-1H-indol-3-yl)methylene)-3-(1-(4-chlorophenyl)-2-hydroxyethyl)imidazolidine-2,4-dione]	≤ 1000	10 to 100	10 to 100
Cc1c(Cl)ccc2c(/C=C3\NC(=O)N(C(C(=O)NCCO)c4ccc(Cl)cc4)C3=O)c[nH]c12 (stereo not drawn) [Compound 48, (Z)-2-(4-((6-chloro-7-methyl-1H-indol-3-yl)methylene)-2,5-dioxoimidazolidin-1-yl)-2-(4-chlorophenyl)-N-(2-hydroxyethyl)acetamide]	≤ 1000	< 10	< 10
N#Cc1ccc([C@H](CO)N2C(=O)N/C(=C\c3c[nH]c4cc(Cl)ccc34)C2=O)cc1 [Compound 49, (R,Z)-4-(1-(4-((6-chloro-1H-indol-3-yl)methylene)-2,5-dioxoimidazolidin-1-yl)-2-hydroxyethyl)benzonitrile]	≤ 1000	< 10	10 to 100
N#Cc1ccc([C@@H](CO)N2C(=O)N/C(=C\c3c[nH]c4cc(Cl)ccc34)C2=O)cc1 [Compound 50, (S,Z)-4-(1-(4-((6-chloro-1H-indol-3-yl)methylene)-2,5-dioxoimidazolidin-1-yl)-2-hydroxyethyl)benzonitrile]	≤ 1000	10 to 100	> 100
O=C1N/C(=C\c2c[nH]c3cc(Cl)ccc23)C(=O)N1[C@H](CO)c1ccc(F)c(F)c1 [Compound 53, (S,Z)-5-((6-chloro-1H-indol-3-yl)methylene)-3-(1-(3,4-difluorophenyl)-2-hydroxyethyl)imidazolidine-2,4-dione]	1000 to 10000	< 10	< 10
O=C1N/C(=C\c2c[nH]c3cc(Cl)ccc23)C(=O)N1[C@@H](CO)c1ccc(F)c(F)c1 [Compound 54, (R,Z)-5-((6-chloro-1H-indol-3-yl)methylene)-3-(1-(3,4-difluorophenyl)-2-hydroxyethyl)imidazolidine-2,4-dione]	≤ 1000	10 to 100	10 to 100
